Experiments:
sugar beet = assay: Test B pre/postemergence sugar beet; format: in vivo, Beta vulgaris
In short: (§1)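 Response is a visual 0-to-10 score relative to untreated plants, where 0 means no effect and 10 means complete control, taken twelve to sixteen days after application. Treatments went onto soil at planting and onto foliage of 1- to 4-leaf plants, using a surfactant-containing non-phytotoxic solvent.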

blackgrass = assay: Test B pre/postemergence blackgrass; format: in vivo, Alopecurus myosuroides
In short: as §1

corn = assay: Test B pre/postemergence corn; format: in vivo, Zea mays
In short: as §1

surinam grass = assay: Test B pre/postemergence surinam grass; format: in vivo, Brachiaria decumbens
In short: as §1

cocklebur = assay: Test B pre/postemergence cocklebur; format: in vivo, Xanthium strumarium
In short: as §1

giant foxtail = assay: Test B pre/postemergence giant foxtail; format: in vivo, Setaria faberii
In short: as §1

duck salad = assay: Test B flood test duck salad; format: in vivo, Heteranthera limosa
In short: (§2)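 Read-out is a visual response score from 0 (no effect) to 10 (complete control), assigned by comparison with untreated controls. Treatment was applied at the 2-leaf stage, and plants stayed in the greenhouse for twelve to sixteen days before scoring.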

wheat = assay: Test B pre/postemergence wheat; format: in vivo, Triticum aestivum
In short: as §1

purple nutsedge = assay: Test B pre/postemergence purple nutsedge; format: in vivo, Cyperus rotundus
In short: as §1

wild oat = assay: Test B pre/postemergence wild oat; format: in vivo, Avena fatua
In short: as §1

smallflower flatsedge = assay: Test B flood test smallflower flatsedge; format: in vivo, Cyperus difformis
In short: as §2

rape = assay: Test B pre/postemergence rape; format: in vivo, Brassica napus
In short: as §1

morningglory = assay: Test B pre/postemergence morningglory; format: in vivo, Ipomoea hederacea
In short: as §1

velvetleaf = assay: Test B pre/postemergence velvetleaf; format: in vivo, Abutilon theophrasti
In short: as §1

soybean = assay: Test B pre/postemergence soybean; format: in vivo, Glycine max
In short: as §1

crabgrass = assay: Test B pre/postemergence crabgrass; format: in vivo, Digitaria sanguinalis
In short: as §1

[1] = Preemergence, Rate 62 g/ha, scale of 0 to 10 where 0 is no effect and 10 is complete control
[2] = Preemergence, Rate 125 g/ha, 0 is no effect, 10 is complete control
[3] = Preemergence, Rate 250 g/ha, scale 0 to 10, 0 is no effect, 10 is complete control
[4] = Preemergence, Rate 500 g/ha, scale 0 to 10 (0 no effect, 10 complete control)
[5] = Rate 62 g/ha, Postemergence, scale of 0 to 10 where 0 is no effect and 10 is complete control
[6] = Rate 125 g/ha, Postemergence, scale 0 to 10
[7] = Rate 500 g/ha, Postemergence, scale 0 to 10
[8] = Rate 62 g/ha, headed Pre-emergence (flood test species), scale 0 to 10 (0 no effect, 10 complete control)
[9] = Rate 125 g/ha, Pre-emergence, flood test species, scale 0 to 10 where 0 is no effect and 10 is complete control
[10] = Rate 250 g/ha, Pre-emergence, flood-test species, scale 0 to 10, 0 is no effect, 10 is complete control

COc1nc(OC)nc(N(C(=O)n2oc(=O)n(-c3c(C)cccc3C)c2=O)C(C)C)n1 [Compound 180]
0: Sugarbeets plant response rating (sugar beet; [1]) | Sugarbeets plant response rating (0 to 10 scale) (sugar beet; [2]) | Sugarbeets plant response rating (sugar beet; [3]) | Sugarbeets plant response rating (sugar beet; [4]) | Sugarbeets plant response rating (sugar beet; [5]) | Sugarbeets plant response rating (sugar beet; [6]) | Plant response rating (0 to 10; 0 is no effect, 10 is complete control), Sugarbeets (sugar beet; Rate 250 g/ha, Postemergence) | Sugarbeets plant response rating (sugar beet; [7]) | Blackgrass plant response rating (blackgrass; [1]) | Blackgrass plant response rating (0 to 10 scale) (blackgrass; [2]) | Blackgrass plant response rating (blackgrass; [3]) | Blackgrass plant response rating (blackgrass; [4]) | Blackgrass plant response rating (blackgrass; [5]) | Blackgrass plant response rating (blackgrass; [6]) | Plant response rating (0 to 10; 0 is no effect, 10 is complete control), Blackgrass (blackgrass; Rate 250 g/ha, Postemergence) | Blackgrass plant response rating (blackgrass; [7]) | Corn plant response rating (corn; [1]) | Corn plant response rating (0 to 10 scale) (corn; [2]) | Corn plant response rating (corn; [3]) | Corn plant response rating (corn; [4]) | Corn plant response rating (corn; [5]) | Corn plant response rating (corn; [6]) | Plant response rating (0 to 10; 0 is no effect, 10 is complete control), Corn (corn; Rate 250 g/ha, Postemergence) | Corn plant response rating (corn; [7]) | B. signalgrass plant response rating (surinam grass; [1]) | B. signalgrass plant response rating (0 to 10 scale) (surinam grass; [2]) | B. signalgrass plant response rating (surinam grass; [3]) | B. signalgrass plant response rating (surinam grass; [4]) | B. signalgrass plant response rating (surinam grass; [5]) | B. signalgrass plant response rating (surinam grass; Rate 125 g/ha, Postemergence, scale 0 (no effect) to 10 (complete control)) | Plant response rating, B. signalgrass (surinam grass; Rate 250 g/ha, Postemergence, scale 0 to 10, 0 is no effect, 10 is complete control) | B. signalgrass plant response rating (surinam grass; Rate 500 g/ha, Postemergence, scale 0 to 10, 0 no effect, 10 complete control) | Cocklebur plant response rating (cocklebur; [1]) | Cocklebur plant response rating (0 to 10 scale) (cocklebur; [2]) | Cocklebur plant response rating (cocklebur; [3]) | Cocklebur plant response rating (cocklebur; [4]) | Cocklebur plant response rating (cocklebur; [5]) | Cocklebur plant response rating (cocklebur; [6]) | Plant response rating (0 to 10; 0 is no effect, 10 is complete control), Cocklebur (cocklebur; Rate 250 g/ha, Postemergence) | Cocklebur plant response rating (cocklebur; [7]) | Giant foxtail plant response rating (giant foxtail; [1]) | Giant foxtail plant response rating (0 to 10 scale) (giant foxtail; [2]) | Giant foxtail plant response rating (giant foxtail; [3]) | Giant foxtail plant response rating (giant foxtail; [4]) | Giant foxtail plant response rating (giant foxtail; [5]) | Giant foxtail plant response rating (giant foxtail; [6]) | Plant response rating (0 to 10; 0 is no effect, 10 is complete control), Giant foxtail (giant foxtail; Rate 250 g/ha, Postemergence) | Giant foxtail plant response rating (giant foxtail; [7]) | Ducksalad plant response rating (duck salad; [8]) | Ducksalad plant response rating (duck salad; [9]) | Ducksalad plant response rating (duck salad; [10]) | Plant response rating, Ducksalad (duck salad; Rate 500 g/ha, headed Pre-emergence (flood test species), scale 0 to 10 (0 no effect, 10 complete control)) | Wheat plant response rating (wheat; [1]) | Wheat plant response rating (wheat; [3]) | Wheat plant response rating (wheat; [4]) | Wheat plant response rating (wheat; [6]) | Plant response rating (0 to 10; 0 is no effect, 10 is complete control), Wheat (wheat; Rate 250 g/ha, Postemergence) | Wheat plant response rating (wheat; [7]) | Nutsedge plant response rating (purple nutsedge; [1]) | Nutsedge plant response rating (0 to 10 scale) (purple nutsedge; [2]) | Nutsedge plant response rating (purple nutsedge; [3]) | Nutsedge plant response rating (purple nutsedge; [4]) | Nutsedge plant response rating (purple nutsedge; [5]) | Nutsedge plant response rating (purple nutsedge; [6]) | Plant response rating (0 to 10; 0 is no effect, 10 is complete control), Nutsedge (purple nutsedge; Rate 250 g/ha, Postemergence) | Nutsedge plant response rating (purple nutsedge; [7]) | Wild oats plant response rating (wild oat; [1]) | Wild oats plant response rating (wild oat; [3]) | Wild oats plant response rating (wild oat; [4]) | Wild oats plant response rating (wild oat; [6]) | Plant response rating (0 to 10; 0 is no effect, 10 is complete control), Wild oats (wild oat; Rate 250 g/ha, Postemergence) | Wild oats plant response rating (wild oat; [7]) | S. Flatsedge plant response rating (smallflower flatsedge; [8]) | S. Flatsedge plant response rating (smallflower flatsedge; [9]) | S. Flatsedge plant response rating (smallflower flatsedge; [10]) | S. Flatsedge plant response rating (smallflower flatsedge; Rate 500 g/ha, Pre-emergence, flood test species, scale 0 to 10 (0 no effect, 10 complete control)) | Rape plant response rating (rape; [1]) | Rape plant response rating (0 to 10 scale) (rape; [2]) | Rape plant response rating (rape; [3]) | Rape plant response rating (rape; [4]) | Rape plant response rating (rape; [5]) | Rape plant response rating (rape; [6]) | Plant response rating (0 to 10; 0 is no effect, 10 is complete control), Rape (rape; Rate 250 g/ha, Postemergence) | Rape plant response rating (rape; [7]) | Morningglory plant response rating (morningglory; [1]) | Morningglory plant response rating (0 to 10 scale) (morningglory; [2]) | Morningglory plant response rating (morningglory; [3]) | Morningglory plant response rating (morningglory; [4]) | Morningglory plant response rating (morningglory; [5]) | Morningglory plant response rating (morningglory; [6]) | Plant response rating (0 to 10; 0 is no effect, 10 is complete control), Morningglory (morningglory; Rate 250 g/ha, Postemergence) | Morningglory plant response rating (morningglory; [7]) | Velvetleaf plant response rating (velvetleaf; [1]) | Velvetleaf plant response rating (velvetleaf; [3]) | Velvetleaf plant response rating (velvetleaf; [4]) | Velvetleaf plant response rating (velvetleaf; [6]) | Plant response rating (0 to 10; 0 is no effect, 10 is complete control), Velvetleaf (velvetleaf; Rate 250 g/ha, Postemergence) | Velvetleaf plant response rating (velvetleaf; [7]) | Soybean plant response rating (soybean; [1]) | Soybean plant response rating (0 to 10 scale) (soybean; [2]) | Soybean plant response rating (soybean; [3]) | Soybean plant response rating (soybean; [4]) | Soybean plant response rating (soybean; [5]) | Soybean plant response rating (soybean; [6]) | Plant response rating (0 to 10; 0 is no effect, 10 is complete control), Soybean (soybean; Rate 250 g/ha, Postemergence) | Soybean plant response rating (soybean; [7]) | Crabgrass plant response rating (crabgrass; [1]) | Crabgrass plant response rating (0 to 10 scale) (crabgrass; [2]) | Crabgrass plant response rating (crabgrass; [3]) | Crabgrass plant response rating (crabgrass; [4]) | Crabgrass plant response rating (crabgrass; [5]) | Crabgrass plant response rating (crabgrass; [6]) | Plant response rating (0 to 10; 0 is no effect, 10 is complete control), Crabgrass (crabgrass; Rate 250 g/ha, Postemergence) | Crabgrass plant response rating (crabgrass; [7])
